# Assays:
# [1] = test system: Arabidopsis thaliana plants; assay: SOA1 gene expression analysis (60mer microarray, 6200 genes) of herbicide-treated tissue; details: SOA1 profiles
# [2] = test system: Arabidopsis thaliana plants; assay: SOA1 phenotypic analysis of herbicide-treated plants (incl. MIC/Tmic); format: in vivo; details: herbicide-treated plants
# [3] = test system: Saccharomyces cerevisiae wild type strain BY4743; assay: AF1 yeast metabolite analysis by GC-MS and LC-MS; format: cell-based; details: for # Compounds perturbed by treatment: 2×MIC, two hours
# [4] = test system: Saccharomyces cerevisiae wild type strain BY4743; assay: AF1 yeast gene expression analysis (microarray, KEGG pathway mapping); format: cell-based
# Protocol: Saccharomyces cerevisiae wild type strain BY4743 was purchased from American Type Culture Center (ATCC, Manassas, Va.). The yeast strain was grown in YPD or SD media. H. […] The cultures started from fresh single colonies were grown in 1.0 ml YPD overnight at 30° C. […] The OD600 was adjusted to 1.0 with YPD media, then 2.0 ml of each was inoculated into three 250 ml flasks, each containing 50 ml of SD media. […] The cells were kept growing for another two hours, then collected by centrifugation at 4000 rpm for 5 minutes at 4° C. Pellets were washed once with ice-cold water, then were lyophilized overnight at 4° C. […] Tubes were vortexed for 30 seconds, then incubated for 10 minutes at room temperature (RT). […] Tubes were incubated for 10 minutes at RT. Samples were centrifuged for 20 minutes as before. Pellets were washed with 400 μl 70% ethanol and centrifuged for 10 minutes as before. The pellet was then dissolved in 100 μl nuclease-free water. RNA quality was determined using the Bioanalyzer 2100 and the RNA 6000 assay (Agilent Technologies, Palo Alto, Calif.) according to manufacturer's instructions. RNA concentrations were determined spectrophotometrically by measuring the absorption at 260 nm in an Ultrospec 2000 (Pharmacia Biotech, Piscataway, N.J.). […] Labeled cRNAs were evaluated using the RNA 6000 assay on the Agilent Bioanalyzer 2100. Labeled cRNA concentrations were determined spectrophotometrically by measuring the absorption at 260 nm in an Ultrospec 2000 (Pharmacia Biotech, Piscataway, N.J.). […] Each pair of samples to be hybridized were independently labeled and hybridized utilizing a fluor reversal for a total of two hybridizations per sample pair. The microarrays were scanned simultaneously in the Cy3 and Cy5 channels with Agilent's 48-slide, Dual Laser DNA Microarray Scanner (Agilent Technologies, Palo Alto, Calif.) at 10 μm resolution using default settings. Image Analysis Software (Version A.4.0.45, Agilent Technologies, Palo Alto, Calif.) was used for image analysis. Each feature was determined from an array's associated pattern file and a detection algorithm. Intensity values for each feature were determined after subtracting background derived from an average of negative control features. Features with unusual pixel intensity statistics (e.g., high non-uniformity, saturation in either channel, and the like) were excluded from downstream analyses. Data was loaded into the Rosetta RESOLVER database (Rosetta Inpharmatics Inc., Kirkland, Wash.) for storage and analysis. Data was evaluated after combining results from fluor reversal replicate hybridizations. The annotation of yeast ORFs was obtained from Proteome BIOKNOWLEDGE Library (Incyte Genomics, Palo Alto, Calif.). In AF1, two different technologies were utilized: gene expression analysis (for examination of mRNA expression) and metabolite analysis. […] As noted previously, existing metabolic databases may be helpful in practicing the methods and systems of the present invention, but many databases include limitations that make their use in data analysis and pathway mapping less than straightforward. […] This caveat to KEGG makes it difficult to pinpoint the correct pathway when attempting to link a gene to a specific pathway. The pathway score indicates how meaningful the mapping is, or how likely it is to be correctly indicative of the pathway involved in the perturbation under examination. The method provides a pathway score based on perturbation levels of genes and/or compounds and the information content of each gene and/or compound in the pathway, i.e., a pathway score indicates the extent to which other pathways are mapped to a gene/compound. For example, imagine that two genes are perturbed in a particular experiment.
# [5] = test system: Saccharomyces cerevisiae wild type strain BY4743; assay: AF1 combined gene expression and metabolite data (reactions, pathways, cluster analysis); format: cell-based
# Text: The data were then combined to determine the number of reactions showing an enzyme and at least one compound perturbed, and to determine the number of pathways having at least one enzyme and one perturbed compound perturbed. The results of the analysis are represented in Tables 16 and 17, and were difficult to interpret, illustrating that the ability to draw conclusions from compound mapping to pathways is limited when absent additional data. […] A coherent data set was created from data obtained from the four above-described drug compounds. The data were reduced by using principle components analysis and cluster analysis.
smiles,measurement,setting,value
COC(=O)c1cc(Oc2ccc(Cl)cc2Cl)ccc1[N+](=O)[O-] [Bifenox],gene expression profile correlation to acifluorfen (r),[1],0.151
same,characteristic symptoms (morphological phenotype),[2],Necrotic leaf flecks
CCc1cccc(C)c1N(C(=O)CCl)C(C)COC (stereo not drawn) [Metolachlor],gene expression profile correlation with bifenox (r),[1],0.499
same,gene expression profile correlation with diquat (r),[1],0.569
CC[C@@H]([C@H](C)O)n1ncn(-c2ccc(N3CCN(c4ccc(OC[C@@H]5CO[C@@](Cn6cncn6)(c6ccc(F)cc6F)C5)cc4)CC3)cc2)c1=O [Posaconazole],# Compounds perturbed by treatment,[3]; P < 0.05,3
same,# Compounds perturbed by treatment,[3]; P < 0.1,4
same,Fold Change: alanine,[3]; Platform GC,1.035
same,Fold Change: asparagine,[3]; Platform GC,0.145
same,Fold Change: aspartic acid,[3]; Platform GC,−0.071
same,Fold Change: campesterol,[3]; Platform GC,0
same,Fold Change: desmosterol,[3]; Platform GC,0
same,Fold Change: disaccaride1,[3]; Platform GC,0.04733
same,Fold Change: disaccaride2,[3]; Platform GC,0.313
same,Fold Change: disaccaride3,[3]; Platform GC,0.3407
same,Fold Change: ergosterol,[3]; Platform GC,0.808
same,Fold Change: fucosterol,[3]; Platform GC,6.722
same,Fold Change: glutamine,[3]; Platform GC,0.6439
same,Fold Change: glycanopyrose,[3]; Platform GC,1.594
same,Fold Change: glycerol,[3]; Platform GC,0.1873
same,Fold Change: glycine,[3]; Platform GC,0.08267
same,Fold Change: hexadecanoic acid,[3]; Platform GC,−0.01867
same,Fold Change: iso citric acid,[3]; Platform GC,0.4
same,Fold Change: isoleucine,[3]; Platform GC,0.1023
same,Fold Change: lanosterol,[3]; Platform GC,7.464
same,Fold Change: leucine,[3]; Platform GC,0.334
same,Fold Change: lysine,[3]; Platform GC,0.1586
same,Fold Change: malic acid,[3]; Platform GC,0.2942
same,Fold Change: 2-ketobutyric acid,[3]; Platform nLC,−0.9992
same,Fold Change: 2-ketoglutaric,[3]; Platform nLC,11.33
same,Fold Change: 3-indolylacetonitri,[3]; Platform nLC,−0.9998
same,Fold Change: 4-methylcatechol,[3]; Platform nLC,0
same,Fold Change: 4aminobutyrate/dimg,[3]; Platform nLC,−0.008939
same,Fold Change: 5hydroxyLtryptophan,[3]; Platform nLC,0
same,Fold Change: 6-benzylaminopurine,[3]; Platform nLC,0
same,Fold Change: DLaminoadipic acid,[3]; Platform nLC,−0.9935
same,Fold Change: abscisic acid,[3]; Platform nLC,0
same,Fold Change: aconitic acid,[3]; Platform nLC,1.874
same,Fold Change: adenine,[3]; Platform nLC,0
same,Fold Change: adenosine,[3]; Platform nLC,128.3
same,Fold Change: alanine,[3]; Platform nLC,0.1091
same,Fold Change: allantoic acid,[3]; Platform nLC,0.3321
same,Fold Change: allantoin,[3]; Platform nLC,5.97
same,Fold Change: anthranilic acid,[3]; Platform nLC,0
same,Fold Change: arginine,[3]; Platform nLC,0.1707
same,Fold Change: argininosuccinate,[3]; Platform nLC,318.3
same,Fold Change: asparagine,[3]; Platform nLC,0.006865
same,Fold Change: aspartic,[3]; Platform nLC,0.305
same,Fold Change: benzoic acid,[3]; Platform nLC,0
same,Fold Change: biotin,[3]; Platform nLC,−0.9992
same,Fold Change: caffeic acid,[3]; Platform nLC,−0.49
same,Fold Change: catechol,[3]; Platform nLC,0
same,Fold Change: cinnamic acid,[3]; Platform nLC,0
same,Fold Change: citricanoic/itaconi,[3]; Platform nLC,0
same,Fold Change: citrulline,[3]; Platform nLC,1160
same,Fold Change: coumaric acid,[3]; Platform nLC,0
same,Fold Change: cytidine,[3]; Platform nLC,−0.9986
same,Fold Change: cytosine,[3]; Platform nLC,0
same,Fold Change: decanoic acid,[3]; Platform nLC,0.1263
same,Fold Change: diaminopimelic acid,[3]; Platform nLC,0
same,Fold Change: dihydrofolic acid,[3]; Platform nLC,0
same,Fold Change: estrone,[3]; Platform nLC,0
same,Fold Change: farnesol,[3]; Platform nLC,0
same,Fold Change: folic acid,[3]; Platform nLC,0
same,Fold Change: fumaric/3m2oxobutan,[3]; Platform nLC,−0.9997
same,Fold Change: gallic acid,[3]; Platform nLC,0.4414
same,Fold Change: gibberellic,[3]; Platform nLC,0
same,Fold Change: glucosamine6PO4,[3]; Platform nLC,−0.9951
same,Fold Change: glutamic/acetylseri,[3]; Platform nLC,0.3222
same,Fold Change: glutamine/lysine,[3]; Platform nLC,0.09814
same,Fold Change: guanine,[3]; Platform nLC,0
same,Fold Change: guanosine,[3]; Platform nLC,−0.993
same,Fold Change: histidine,[3]; Platform nLC,0
same,Fold Change: homogentisic/uric,[3]; Platform nLC,0
same,Fold Change: hydrocortisone,[3]; Platform nLC,0
same,Fold Change: hypoxanthine,[3]; Platform nLC,0.1751
same,Fold Change: indole3pyruvic acid,[3]; Platform nLC,0
same,Fold Change: inostol/glucos/sorb,[3]; Platform nLC,−0.493
same,Fold Change: isocitric/citric/qu,[3]; Platform nLC,1.711
same,Fold Change: jasmonic acid,[3]; Platform nLC,0
same,Fold Change: kinetin,[3]; Platform nLC,0
same,Fold Change: lactic acid,[3]; Platform nLC,0.5987
same,Fold Change: lauric acid,[3]; Platform nLC,0.9833
same,Fold Change: leucine/isoleucine/,[3]; Platform nLC,0.03158
same,Fold Change: luteolin,[3]; Platform nLC,0
same,Fold Change: malic acid,[3]; Platform nLC,0.3101
same,Fold Change: malonic acid,[3]; Platform nLC,0
same,Fold Change: menthol*,[3]; Platform nLC,0.08121
same,Fold Change: methionine,[3]; Platform nLC,0
same,Fold Change: 4-aminobenzoic acid,[3]; Platform pLC,0
same,Fold Change: 4-methylcatechol,[3]; Platform pLC,0
same,Fold Change: 4ambutyrate/dimglyc,[3]; Platform pLC,31.37
same,Fold Change: 5hydroxyLtryptophan,[3]; Platform pLC,0
same,Fold Change: 6benzylaminopurine,[3]; Platform pLC,0
same,Fold Change: DL-aminoadipic acid,[3]; Platform pLC,1.685
same,Fold Change: abscisic acid,[3]; Platform pLC,0
same,Fold Change: adenine,[3]; Platform pLC,−0.0145
same,Fold Change: adenosine,[3]; Platform pLC,0
same,Fold Change: alanine/sarcosine,[3]; Platform pLC,0.1013
same,Fold Change: allantoic acid,[3]; Platform pLC,0
same,Fold Change: anthranilic acid,[3]; Platform pLC,0
same,Fold Change: arginine,[3]; Platform pLC,0.03383
same,Fold Change: argininosuccinate,[3]; Platform pLC,0
same,Fold Change: asparagine,[3]; Platform pLC,0.4302
same,Fold Change: aspartic acid,[3]; Platform pLC,0.3626
same,Fold Change: biotin,[3]; Platform pLC,0
same,Fold Change: caffeine,[3]; Platform pLC,0
same,Fold Change: citric acid TME,[3]; Platform pLC,0
same,Fold Change: citrulline,[3]; Platform pLC,0.1011
same,Fold Change: cytidine,[3]; Platform pLC,0
same,Fold Change: cytosine,[3]; Platform pLC,1135
same,Fold Change: diaminopimelic acid,[3]; Platform pLC,0
same,Fold Change: dihydrofolic acid,[3]; Platform pLC,0
same,Fold Change: dipicolinic acid,[3]; Platform pLC,0
same,Fold Change: folic acid,[3]; Platform pLC,0
same,Fold Change: glucosamine,[3]; Platform pLC,0
same,Fold Change: glucosamine6PO4,[3]; Platform pLC,0
same,Fold Change: glutamate,[3]; Platform pLC,0.3769
same,Fold Change: glutamine/lysine,[3]; Platform pLC,0.303
same,Fold Change: glutathione,[3]; Platform pLC,0.0101
same,Fold Change: guanosine,[3]; Platform pLC,0.04655
same,Fold Change: histidine,[3]; Platform pLC,0
same,Fold Change: hydrocortisone,[3]; Platform pLC,0
same,Fold Change: hypoxanthine,[3]; Platform pLC,0.135
same,Fold Change: itaconic acid dimes,[3]; Platform pLC,0
same,Fold Change: kinetin,[3]; Platform pLC,0
same,Fold Change: leucine/isoleucine/,[3]; Platform pLC,0.04937
same,Fold Change: luteolin,[3]; Platform pLC,0
same,Fold Change: mannitol,[3]; Platform pLC,0.3919
same,Fold Change: methionine,[3]; Platform pLC,−0.3997
same,# Transcripts perturbed by treatment,"[4]; P < 0.05, 2×MIC, two hours",690
same,"Number of Pathways Affected by at Least One Gene, # Pathways","[4]; p < 0.05, KEGG mapping",69
same,"Number of Reactions Having an Enzyme and at Least One Compound Perturbed, # Reactions",[5],0

# — US20040002842A1, “Methods and systems for analyzing complex biological systems” (priority 2001, published 2004)
